Experimental findings from ChEMBL document CHEMBL1201862, “PubChem BioAssay data set” (2004) are described below.

Usually IC50 stands for the concentration that inhibits the measured activity by half. As usually defined, the EC50 is the concentration giving half of the maximal effect. As usually defined, the CC50 is the concentration giving 50% cytotoxicity. In general, AC50 refers to the concentration at which the activity in the assay is half-maximal.

In assay [1] the target is NADPH oxidase 1 (Homo sapiens, UniProt Q9Y5S8). In words: Luminescence-based cell-based dose response assay to identify inhibitors of NADPH oxidase 1 (NOX1). In kind it is functional.
Assay [2] has as its target Estrogen receptor beta (Homo sapiens, UniProt Q92731).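 Further: recombinant ER-beta bound to coactivator SRC1 peptide in presence of estradiol agonist; inhibitors block coactivator peptide binding and lower the FRET signal.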
The target in assay [3] is Sphingosine 1-phosphate receptor 2 (Homo sapiens, UniProt O95136). In words: Dose Response Cell Based Assay for Agonists of the S1P2 Receptor. [Related pubchem assays: 729, 736, 843 ]. Format: functional.
Assay [4] in a line: HEp-2 cell cytotoxicity, dose response, cytotoxicity control for RSV inhibitor project, HTS (AID 2410). The note with it: human respiratory syncytial virus. Format: functional.
Assay [5] can be described thus: cells.
Assay [6] concerns Vero. In words: cells. Format: functional, cell-based. The note with it: Chlorocebus sabaeus.
For assay [7], the target named is Estrogen receptor (Homo sapiens, UniProt P03372).
The target of assay [8] is T1, Microphthalmia-associated transcription factor (Homo sapiens, UniProt O75030).
T1 sequence (O75030 whole entry): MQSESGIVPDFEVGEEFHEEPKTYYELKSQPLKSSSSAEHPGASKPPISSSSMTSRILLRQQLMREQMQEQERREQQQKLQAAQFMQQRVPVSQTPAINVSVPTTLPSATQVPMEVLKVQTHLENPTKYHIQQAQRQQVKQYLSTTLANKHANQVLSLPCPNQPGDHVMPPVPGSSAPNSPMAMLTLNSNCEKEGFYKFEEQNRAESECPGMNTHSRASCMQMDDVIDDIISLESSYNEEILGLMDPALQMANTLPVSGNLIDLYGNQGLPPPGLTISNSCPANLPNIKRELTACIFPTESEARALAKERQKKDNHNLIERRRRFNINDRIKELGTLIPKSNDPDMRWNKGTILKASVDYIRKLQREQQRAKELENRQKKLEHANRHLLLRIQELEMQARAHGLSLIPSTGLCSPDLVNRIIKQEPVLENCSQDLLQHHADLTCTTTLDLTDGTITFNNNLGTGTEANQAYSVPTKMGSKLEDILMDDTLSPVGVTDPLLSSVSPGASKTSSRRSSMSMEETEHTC
The experiment in a line: TRPM1 promoter luciferase signal decrease, dose response, MITF inhibitor project, cell-based, SK-MEL-5, cherry-picked, set 3 (AID 493073).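 Further: SK-MEL-5 melanoma cells with luciferase driven by the MITF target TRPM1 promoter.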 Format: functional.

Assay [9] concerns the target Luciferin 4-monooxygenase (Photinus pyralis, UniProt P08659). The experiment in a line: Counter Screen for Luciferase-based Assay Positives. [Related pubchem assays: 620, 618, 411 ]. (A counterscreen serves to expose hits that act by an unwanted route or on another target.)
Assay [10] concerns the target Genome polyprotein (dengue virus type 2, UniProt P29990). In words: Dengue-2 NS5 methyltransferase inhibitors, primary screen, biochemical, confirmation dose response (AID 588689). In kind it is functional.
Assay [11] concerns the target Voltage-dependent T-type calcium channel subunit alpha-1H (Homo sapiens, UniProt O95180). In kind it is functional.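 Further: channel activity triggered by adding a high calcium stimulation buffer.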
Assay [12] deals with T2, Calpain-2 catalytic subunit (Sus scrofa, UniProt P43367).
T2 sequence (P43367 whole entry): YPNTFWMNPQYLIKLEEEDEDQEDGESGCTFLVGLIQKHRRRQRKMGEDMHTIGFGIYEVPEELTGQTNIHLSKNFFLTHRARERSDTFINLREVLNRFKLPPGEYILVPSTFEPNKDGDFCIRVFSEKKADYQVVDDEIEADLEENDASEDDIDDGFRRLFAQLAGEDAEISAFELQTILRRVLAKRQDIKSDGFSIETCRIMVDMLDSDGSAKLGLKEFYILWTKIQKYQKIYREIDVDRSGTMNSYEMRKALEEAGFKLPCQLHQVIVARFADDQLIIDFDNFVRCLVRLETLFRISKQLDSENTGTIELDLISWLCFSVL
The experiment in a line: pig calpain II inhibitor potency, dose response, biochemical, fluorogenic peptide substrate (AID 1420). In kind it is functional.

In assay [13] the target is Lytic switch protein BZLF1 (Epstein-Barr virus (strain B95-8) (HHV-4) (Human herpesvirus 4), UniProt P03206). In words: EBV ZTA inhibitors, dose response, counter-screen for EBNA-1 inhibitor project, biochemical, fluorescence polarization, Epstein-Barr virus, 1536-well (AID 2377).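 Further: fluorescence polarization of Cy5-labelled ZRE DNA probe bound by purified Zta.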 Set-up: species or system human gammaherpesvirus 4.
Assay [14] deals with Epstein-Barr nuclear antigen 1 (Epstein-Barr virus (strain B95-8) (HHV-4) (Human herpesvirus 4), UniProt P03211). The experiment in a line: EBNA-1 inhibitors, dose response, biochemical, fluorescence polarization, 1536-well (AID 2381).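 Further: fluorescence polarization of a Cy5 DNA probe bound by EBNA-1 protein.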 Also on record: species or system human gammaherpesvirus 4. On the technique in general: Polarisation of emitted light reports the rotation of a fluorescent probe.

Assay [15] in a line: inhibitors of SNCA 5'UTR-driven reporter translation, confirmation, H4 neuroglioma cells, luminescence (AID 1988). In kind it is functional, cell-based.
The nature of assay [16]: Luminescence Cell-Based Dose Response HTS to Identify Inhibitors of 5'UTR Stem-Loop Driven Prion Protein mRNA Translation in H4 Neuroglioblastoma Cells. [Related pubchem assays: 1827 (Project Summary), 1813 (Primary HTS)]. Format: functional.
Assay [17] can be described thus: inhibitors of firefly luciferase expression or activity, dose response, H4 neuroglioma cells, luminescence (AID 1990). In kind it is functional, cell-based.
The nature of assay [18]: NIH-3T3 fibroblast cytotoxicity, dose response, cytotoxicity control, cell-based, fluorescence, Alamar Blue, secondary assay (AID 2327).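 Further: NIH-3T3 mouse fibroblasts cultured with fluconazole at 8 µg/mL.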 Format: functional. A general note: Resazurin is reduced to fluorescent resorufin, in cell work by metabolically active cells.
The target of assay [19] is T3, Serine/threonine-protein phosphatase (Candida dubliniensis (strain CD36 / CBS 7987 / NCPF 3949 / NRRLY-17841) (Yeast), UniProt B9W6M3).
T3 sequence (B9W6M3 whole entry): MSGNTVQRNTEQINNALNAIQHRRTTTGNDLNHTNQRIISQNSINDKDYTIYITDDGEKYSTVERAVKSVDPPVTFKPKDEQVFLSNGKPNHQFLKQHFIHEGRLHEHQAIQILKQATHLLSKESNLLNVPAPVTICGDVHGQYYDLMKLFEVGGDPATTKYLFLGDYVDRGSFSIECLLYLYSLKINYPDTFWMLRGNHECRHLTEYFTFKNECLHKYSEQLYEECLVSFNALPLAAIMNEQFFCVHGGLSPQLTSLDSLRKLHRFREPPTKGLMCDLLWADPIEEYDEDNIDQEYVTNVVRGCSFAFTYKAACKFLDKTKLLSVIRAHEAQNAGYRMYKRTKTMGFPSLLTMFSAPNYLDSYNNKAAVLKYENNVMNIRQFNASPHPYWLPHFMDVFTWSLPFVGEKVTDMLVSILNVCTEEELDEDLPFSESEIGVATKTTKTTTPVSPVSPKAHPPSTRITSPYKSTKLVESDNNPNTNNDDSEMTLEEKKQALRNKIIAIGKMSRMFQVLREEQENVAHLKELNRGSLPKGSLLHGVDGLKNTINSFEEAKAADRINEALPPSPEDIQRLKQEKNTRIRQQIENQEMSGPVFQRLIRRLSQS
In words: calcineurin pathway inhibitors in yeast reporter, dose response, S. cerevisiae, CDRE-lacZ, luminescence, secondary (AID 2388).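 Further: yeast reporter cells carrying a calcineurin-responsive lacZ construct stimulated with calcium chloride; luminescent beta-galactosidase reporter signal in whole cells rather than isolated phosphatase activity; potency for inhibition where a drop in reporter signal means calcineurin blockade.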 In kind it is functional, cell-based.

The nature of assay [20]: cytotoxicity toward NIH3T3 fibroblasts, dose response, counter-screen, cell-based, ATP luminescence, mouse fibroblasts (AID 2010).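 Further: cells exposed to compound for about 90 hours before reading.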 In kind it is functional.
A short description of assay [21]: inhibitors of intracellular T. cruzi replication, confirmation, NIH3T3 host cells, beta-gal luminescence (AID 2044).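 Further: intracellular parasites grown in NIH/3T3 mouse fibroblasts as host cells; luminescent beta-galactosidase reporter signal from transgenic T. cruzi replicating inside host cells; inhibitors lower the luminescence signal.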 In kind it is functional, cell-based.
A short description of assay [22]: C. albicans growth with fluconazole, confirmation, fluorescence, retest (AID 2467). Format: functional, cell-based.
A short description of assay [23]: Vero cell cytotoxicity, dose response, cytotoxicity control for Vif-APOBEC3G degradation inhibitor project, Vero cells (AID 1117358). In kind it is functional. The note with it: Human immunodeficiency virus 1, Vero.
In assay [24] the target is ATP-dependent molecular chaperone HSP82 (Candida albicans (strain WO-1) (Yeast), UniProt C4YTQ8). In words: loss of DOC-induced GRE-beta-galactosidase reporter signal, dose response, Hsp90 inhibitor project, S. cerevisiae, luminescence (AID 2400).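 Further: beta-galactosidase luminescence from glucocorticoid response element reporter as proxy for Hsp90 function; inhibitor potency where signal loss means Hsp90 inhibition.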 In kind it is functional, cell-based.
For assay [25], the target named is Ion channel NompC (Danio rerio, UniProt Q7T1G6). In words: Fluorescence counterscreen assay for TRPML3 agonists: dose response cell-based high-throughput screening assay to identify agonists of the transient receptor potential channel N1 (TRPN1). [Related pubchem assays: 1526, 1424, 1448 ]. In kind it is functional.
The target in assay [26] is Mucolipin-3 (Homo sapiens, UniProt Q8TDD5). The experiment in a line: Dose response cell-based high-throughput screening assay for agonists of the transient receptor potential channel ML3 (TRPML3). [Related pubchem assays: 1526, 1424, 1448 ]. Format: functional.
Assay [27] is described as follows: M. tuberculosis H37Rv growth inhibitors, H37Rv strain (AID 1626). Format: functional.
The target in assay [28] is T4, RNA-binding protein pos-1 (Caenorhabditis elegans, UniProt G5EF15).
T4 sequence (G5EF15 whole entry): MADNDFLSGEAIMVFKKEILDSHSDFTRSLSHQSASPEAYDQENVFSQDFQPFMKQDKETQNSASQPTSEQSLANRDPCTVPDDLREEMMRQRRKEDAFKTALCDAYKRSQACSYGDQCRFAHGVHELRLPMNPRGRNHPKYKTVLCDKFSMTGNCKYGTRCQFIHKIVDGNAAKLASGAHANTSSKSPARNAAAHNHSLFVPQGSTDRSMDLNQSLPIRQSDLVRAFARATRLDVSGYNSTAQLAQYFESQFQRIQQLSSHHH
In words: inhibitors of POS-1/mex-3 RNA binding, dose response, biochemical, fluorescence polarization (AID 1964).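 Further: purified POS-1 fused to maltose binding protein made in E. coli; potency of compounds blocking POS-1 binding to fluorescent RNA.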

In assay [29] the target is T5, Zinc finger protein mex-5 (Caenorhabditis elegans, UniProt Q9XUB2).
T5 sequence (Q9XUB2 whole entry): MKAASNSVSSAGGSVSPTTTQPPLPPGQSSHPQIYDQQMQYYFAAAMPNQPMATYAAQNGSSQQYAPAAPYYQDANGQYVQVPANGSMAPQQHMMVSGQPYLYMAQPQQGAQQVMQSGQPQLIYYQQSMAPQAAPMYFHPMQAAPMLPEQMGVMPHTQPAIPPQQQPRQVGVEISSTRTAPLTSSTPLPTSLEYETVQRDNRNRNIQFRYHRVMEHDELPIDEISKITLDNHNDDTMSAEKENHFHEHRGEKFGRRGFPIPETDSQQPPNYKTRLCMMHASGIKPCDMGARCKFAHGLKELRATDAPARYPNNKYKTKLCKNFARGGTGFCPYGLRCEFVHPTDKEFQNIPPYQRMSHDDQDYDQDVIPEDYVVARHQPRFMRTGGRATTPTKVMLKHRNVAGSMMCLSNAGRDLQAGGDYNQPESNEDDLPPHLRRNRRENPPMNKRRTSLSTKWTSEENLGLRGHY
In words: MEX-5/TCR-2 RNA interaction inhibitors, dose response, biochemical, C. elegans, fluorescence polarization (AID 1960).

Calls of active or inactive are those of the source.

Chain of Estrogen receptor (P03372 whole entry): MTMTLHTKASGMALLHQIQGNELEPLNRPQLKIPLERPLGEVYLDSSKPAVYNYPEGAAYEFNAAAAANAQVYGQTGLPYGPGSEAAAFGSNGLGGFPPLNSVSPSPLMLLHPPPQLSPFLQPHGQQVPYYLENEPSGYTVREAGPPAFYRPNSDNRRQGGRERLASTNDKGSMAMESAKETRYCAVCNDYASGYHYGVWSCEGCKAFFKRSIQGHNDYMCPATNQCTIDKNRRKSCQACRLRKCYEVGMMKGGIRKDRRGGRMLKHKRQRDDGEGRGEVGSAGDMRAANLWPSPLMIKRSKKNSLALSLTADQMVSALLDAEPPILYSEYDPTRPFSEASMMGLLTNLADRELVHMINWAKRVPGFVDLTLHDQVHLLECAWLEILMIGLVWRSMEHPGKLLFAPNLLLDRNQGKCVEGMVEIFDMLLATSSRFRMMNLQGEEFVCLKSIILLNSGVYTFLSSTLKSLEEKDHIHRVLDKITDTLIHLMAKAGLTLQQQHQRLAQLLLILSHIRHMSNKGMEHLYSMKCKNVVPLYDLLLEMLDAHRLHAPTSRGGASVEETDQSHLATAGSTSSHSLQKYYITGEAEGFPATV
Chain of Sphingosine 1-phosphate receptor 2 (O95136 whole entry): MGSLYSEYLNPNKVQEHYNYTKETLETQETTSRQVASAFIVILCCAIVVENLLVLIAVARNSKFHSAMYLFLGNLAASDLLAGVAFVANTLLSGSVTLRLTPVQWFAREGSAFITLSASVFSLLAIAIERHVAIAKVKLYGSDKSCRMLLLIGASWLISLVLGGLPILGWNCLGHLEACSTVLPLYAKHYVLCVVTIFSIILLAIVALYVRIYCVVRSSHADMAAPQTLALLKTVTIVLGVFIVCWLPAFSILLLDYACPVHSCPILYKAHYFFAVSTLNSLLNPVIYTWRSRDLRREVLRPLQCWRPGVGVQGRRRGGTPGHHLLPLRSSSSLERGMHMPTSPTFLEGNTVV
Chain of NADPH oxidase 1 (Q9Y5S8 whole entry): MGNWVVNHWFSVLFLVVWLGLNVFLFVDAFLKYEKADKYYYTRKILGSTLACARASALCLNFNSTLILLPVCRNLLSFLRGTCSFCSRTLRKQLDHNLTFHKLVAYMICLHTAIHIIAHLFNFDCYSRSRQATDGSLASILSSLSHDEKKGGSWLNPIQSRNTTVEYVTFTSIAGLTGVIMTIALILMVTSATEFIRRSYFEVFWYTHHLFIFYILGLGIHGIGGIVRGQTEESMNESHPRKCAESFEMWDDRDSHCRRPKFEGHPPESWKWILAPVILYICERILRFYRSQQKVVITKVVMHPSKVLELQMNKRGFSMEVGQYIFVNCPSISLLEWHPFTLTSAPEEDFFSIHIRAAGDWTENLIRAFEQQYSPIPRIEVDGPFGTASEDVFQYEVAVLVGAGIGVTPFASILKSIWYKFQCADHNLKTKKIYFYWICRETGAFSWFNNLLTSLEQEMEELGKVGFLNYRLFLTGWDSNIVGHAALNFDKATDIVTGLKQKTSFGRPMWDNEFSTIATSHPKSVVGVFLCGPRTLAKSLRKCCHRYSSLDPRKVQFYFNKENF
Chain of Estrogen receptor beta (Q92731 whole entry): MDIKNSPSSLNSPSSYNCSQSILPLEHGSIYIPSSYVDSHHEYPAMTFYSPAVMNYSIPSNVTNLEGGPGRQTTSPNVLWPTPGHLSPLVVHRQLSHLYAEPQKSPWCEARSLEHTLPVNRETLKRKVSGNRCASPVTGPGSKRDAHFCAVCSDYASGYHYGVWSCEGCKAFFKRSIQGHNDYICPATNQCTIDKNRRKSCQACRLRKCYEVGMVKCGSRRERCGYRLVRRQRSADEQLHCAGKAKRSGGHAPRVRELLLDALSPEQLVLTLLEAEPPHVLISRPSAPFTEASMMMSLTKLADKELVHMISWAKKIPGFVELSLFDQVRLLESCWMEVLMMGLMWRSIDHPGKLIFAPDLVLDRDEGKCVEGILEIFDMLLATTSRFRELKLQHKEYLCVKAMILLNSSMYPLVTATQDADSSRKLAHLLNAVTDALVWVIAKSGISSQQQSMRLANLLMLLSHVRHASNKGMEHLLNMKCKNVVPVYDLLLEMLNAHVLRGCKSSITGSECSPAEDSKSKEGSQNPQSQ
Chain of ATP-dependent molecular chaperone HSP82 (C4YTQ8 whole entry): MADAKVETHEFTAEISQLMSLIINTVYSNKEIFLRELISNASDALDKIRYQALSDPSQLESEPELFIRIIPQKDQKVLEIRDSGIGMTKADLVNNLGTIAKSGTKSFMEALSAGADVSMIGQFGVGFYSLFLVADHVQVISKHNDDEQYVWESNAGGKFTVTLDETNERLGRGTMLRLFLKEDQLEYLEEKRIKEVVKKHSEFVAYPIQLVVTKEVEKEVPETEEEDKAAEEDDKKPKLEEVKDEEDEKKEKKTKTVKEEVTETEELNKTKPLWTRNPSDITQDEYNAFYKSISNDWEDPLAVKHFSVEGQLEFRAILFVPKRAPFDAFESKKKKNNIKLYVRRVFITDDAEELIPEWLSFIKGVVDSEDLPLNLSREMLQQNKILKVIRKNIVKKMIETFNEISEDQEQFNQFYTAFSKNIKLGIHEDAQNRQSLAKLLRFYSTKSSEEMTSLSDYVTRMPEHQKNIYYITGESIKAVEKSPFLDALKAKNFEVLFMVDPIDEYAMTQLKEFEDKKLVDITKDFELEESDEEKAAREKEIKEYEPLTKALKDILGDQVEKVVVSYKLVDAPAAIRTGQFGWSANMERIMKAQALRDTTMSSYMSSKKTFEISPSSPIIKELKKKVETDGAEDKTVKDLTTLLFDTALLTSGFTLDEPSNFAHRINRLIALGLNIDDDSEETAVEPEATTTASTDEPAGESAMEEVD
Chain of Epstein-Barr nuclear antigen 1 (P03211 whole entry): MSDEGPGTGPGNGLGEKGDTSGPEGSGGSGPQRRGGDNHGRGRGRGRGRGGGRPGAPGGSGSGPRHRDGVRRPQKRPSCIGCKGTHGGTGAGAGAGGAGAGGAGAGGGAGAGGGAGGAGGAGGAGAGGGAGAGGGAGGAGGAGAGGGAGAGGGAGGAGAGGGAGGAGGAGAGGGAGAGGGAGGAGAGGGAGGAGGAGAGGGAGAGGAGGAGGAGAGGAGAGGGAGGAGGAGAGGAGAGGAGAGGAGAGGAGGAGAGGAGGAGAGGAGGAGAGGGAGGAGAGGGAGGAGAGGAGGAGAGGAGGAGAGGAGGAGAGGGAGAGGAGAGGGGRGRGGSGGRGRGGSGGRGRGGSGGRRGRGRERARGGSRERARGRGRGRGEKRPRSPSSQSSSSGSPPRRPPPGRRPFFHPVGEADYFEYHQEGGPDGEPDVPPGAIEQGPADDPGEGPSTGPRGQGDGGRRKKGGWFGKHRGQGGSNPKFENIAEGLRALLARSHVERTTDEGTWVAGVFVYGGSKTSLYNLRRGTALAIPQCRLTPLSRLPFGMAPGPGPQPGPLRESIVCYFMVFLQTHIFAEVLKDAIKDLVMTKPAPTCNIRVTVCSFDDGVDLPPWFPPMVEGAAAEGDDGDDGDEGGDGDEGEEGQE
Chain of Ion channel NompC (Q7T1G6 whole entry): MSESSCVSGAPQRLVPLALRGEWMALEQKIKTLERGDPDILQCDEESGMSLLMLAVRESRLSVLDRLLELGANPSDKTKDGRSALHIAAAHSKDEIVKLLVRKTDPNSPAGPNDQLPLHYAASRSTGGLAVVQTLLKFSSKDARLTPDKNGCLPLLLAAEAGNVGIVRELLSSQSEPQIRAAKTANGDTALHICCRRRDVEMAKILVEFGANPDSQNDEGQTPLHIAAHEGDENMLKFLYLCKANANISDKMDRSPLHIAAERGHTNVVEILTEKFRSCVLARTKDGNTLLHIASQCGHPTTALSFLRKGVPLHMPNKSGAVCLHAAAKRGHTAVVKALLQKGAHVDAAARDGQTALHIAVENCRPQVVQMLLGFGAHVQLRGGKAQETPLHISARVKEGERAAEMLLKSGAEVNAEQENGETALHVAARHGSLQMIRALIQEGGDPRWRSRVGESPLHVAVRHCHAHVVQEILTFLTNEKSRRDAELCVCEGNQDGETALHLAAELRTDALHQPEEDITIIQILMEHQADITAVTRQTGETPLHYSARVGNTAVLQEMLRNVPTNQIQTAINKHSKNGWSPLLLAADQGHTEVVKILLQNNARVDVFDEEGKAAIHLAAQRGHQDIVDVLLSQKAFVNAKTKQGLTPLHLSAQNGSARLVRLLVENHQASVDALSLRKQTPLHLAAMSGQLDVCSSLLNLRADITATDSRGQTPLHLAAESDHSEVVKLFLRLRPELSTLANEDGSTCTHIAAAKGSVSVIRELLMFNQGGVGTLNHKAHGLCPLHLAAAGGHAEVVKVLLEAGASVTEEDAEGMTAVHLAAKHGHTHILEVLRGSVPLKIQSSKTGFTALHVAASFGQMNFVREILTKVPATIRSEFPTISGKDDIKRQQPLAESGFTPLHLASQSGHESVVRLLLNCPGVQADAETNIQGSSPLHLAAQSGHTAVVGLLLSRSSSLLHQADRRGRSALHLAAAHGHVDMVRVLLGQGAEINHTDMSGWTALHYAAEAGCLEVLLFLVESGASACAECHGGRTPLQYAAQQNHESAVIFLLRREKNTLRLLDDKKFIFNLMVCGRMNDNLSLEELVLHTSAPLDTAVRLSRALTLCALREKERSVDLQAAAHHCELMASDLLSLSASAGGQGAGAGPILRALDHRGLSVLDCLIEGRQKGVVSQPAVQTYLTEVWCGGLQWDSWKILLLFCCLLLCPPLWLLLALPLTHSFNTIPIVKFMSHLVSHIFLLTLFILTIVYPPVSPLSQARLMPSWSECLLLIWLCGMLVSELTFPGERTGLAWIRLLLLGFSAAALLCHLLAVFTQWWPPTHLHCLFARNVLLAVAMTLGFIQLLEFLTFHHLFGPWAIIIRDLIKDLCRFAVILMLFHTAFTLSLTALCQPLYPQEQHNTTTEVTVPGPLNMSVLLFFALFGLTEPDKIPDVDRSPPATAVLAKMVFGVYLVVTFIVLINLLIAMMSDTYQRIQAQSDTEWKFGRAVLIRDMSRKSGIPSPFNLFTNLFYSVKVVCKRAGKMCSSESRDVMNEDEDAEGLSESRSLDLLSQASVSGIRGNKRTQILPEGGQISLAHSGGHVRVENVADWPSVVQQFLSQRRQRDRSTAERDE

For `CN(C)c1ccc(NC(=O)Nc2cccc3ccccc23)cc1`, the IC50 in [1] is 0.464 µM (active).

Take `Cc1cnc(C(=O)OCC(=O)c2csc(N3CCCCC3)n2)cn1`: in assay [2], the IC50 is 5.81 µM (active).

For the compound `CCN(CC)c1ccc(NC(=O)Nc2ccccc2C(F)(F)F)cc1`, the EC50 in assay [3] is reported as > 50 µM (not active). In addition, the IC50 in assay [1] was 0.354 µM (active).

`Cc1ccc(CSCC(=O)Nc2ccccc2C(=O)O)cc1`: the 50% cytotoxic concentration (CC50) in assay [4] is 21.9 µM (active). Moreover, the IC50 was 9.39 µM (active) in assay [5] and 12.2 µM (active) in assay [6].

With `CSc1ccc(S(=O)(=O)Nc2c(C)cccc2C)cc1`, in assay [7], the IC50 is reported as > 50 µM (not active).

Turning to `O=C(NCc1cccs1)c1nc2c(nnn2Cc2ccccc2Cl)c(=O)[nH]1`, the AC50 in [8] is 6.66 µM (active). Moreover, the EC50 in assay [9] is 15.4 µM (active). In addition, in assay [10], the IC50 is 51.8 µM (active).

Consider `CCn1c2ccccc2c2nnc(SCC(=O)Nc3ccc4c(c3)OCO4)nc21`, for which, in [7], the IC50 is > 50 µM (not active).

Consider `O=C(Cc1c[nH]c2ccccc12)Nc1nc2ccccc2[nH]1`, for which the values for the EC50 in [3] and in assay [11] were > 50 µM (not active) and 6.91 µM (active), respectively.

Regarding `CCOc1ccc(Nc2nnc(SCc3nc(O)c4ccccc4n3)s2)cc1`, the IC50 in assay [12] was 29.2 µM (not active); in [13] it was > 111 µM (not active); in assay [14] it was 27 µM (not active).

Take `CC(=O)O/N=C/c1c(N2CCOCC2)n(C)c2ccccc12`: the half-maximal effective concentration (EC50) in assay [15] is 38.6 µM (active); in assay [16] it was > 120 µM (not active); in [17], > 120 µM (not active); in [18], > 160 µM (inactive); in [19] it was > 180 µM (inactive); in [20], 4.45 µM (active). The EC50 was 1.25 µM (active) in assay [21], 0.145 µM (active) in assay [22] and > 160 µM (inactive) in assay [24]. For the same compound, the CC50 in assay [23] is > 40 µM (active).

Turning to `Cc1ccccc1OCC(=O)Nc1ccccc1N1CCOCC1`, the EC50 in assay [25] was > 29.9 µM (not active); in [26], 5.08 µM (active).

Turning to `Cc1nc(NC(=O)CSc2nnc(-c3ccc4c(c3)OCO4)o2)c(Cl)cc1Cl`, the IC50 in assay [27] is > 100 µM (active).

On to `CCOC(=O)c1ccc(N/C=C2\CCCCC2=O)cc1`, for which the IC50 in assay [27] is > 100 µM (active). The half-maximal effective concentration (EC50) in assay [28] and in assay [29] was > 300 µM (not active) in each case.

For `O=C(c1ccc(C(=O)N2CCCc3ccccc32)s1)N1CCCc2ccccc21`, in [4], the CC50 is > 50 µM (active). Also, the values for the EC50 in assay [18] and in [22] were 20.7 µM (inconclusive) and 2.45 µM (active), respectively. Also, the IC50 in assay [5] is > 50 µM (active).
